The IC50 is the concentration needed to halve the response being measured.

This note sets out measurements from US12583854B2, “KRAS G12C inhibitors and methods of using the same” (Amgen Inc., priority 2018, dated 2026).

Like-named read-outs stand apart in the source and are kept apart here.

Test [1] deals with GDP-bound KRAS protein (aa 1-169), containing both G12C and C118A amino acid substitutions (Homo sapiens, UniProt P01116, C118A/G12C). The test is described as follows: Coupled Nucleotide Exchange Assay. It is filed as biochemical. As to conditions: 5 min compound pre-incubation; SOS-mediated nucleotide exchange, AlphaScreen. The protocol:
Following compound pre-incubation, purified SOS protein (aa 564-1049) and GTP (Roche 10106399001) were added to the assay wells and incubated for an additional 30 min. To determine the extent of inhibition of SOS-mediated nucleotide exchange, purified GST-tagged cRAF (aa 1-149), nickel chelate AlphaLISA acceptor beads (PerkinElmer AL108R), and AlphaScreen glutathione donor beads (PerkinElmer 6765302) were added to the assay wells and incubated for 10 minutes. The assay plates were then read on a PerkinElmer EnVision Multilabel Reader, using AlphaScreen® technology, and data were analyzed using a 4-parameter logistic model to calculate IC50 values.
On the technique in general: In Alpha technology, singlet oxygen from a donor bead excites a nearby acceptor bead.

The test system of test [2] is Phosphorylation of ERK1/2 in MIA PaCa-2 cells. The test is described as follows: Phospho-ERK1/2 MSD Assay. As to conditions: EGF stimulation 10 ng/mL, 10 min, read-out: p-ERK IC50 (2 h). It is filed as cell-based. How it is done:
Phospho-ERK1/2 MSD Assay: MIA PaCa-2 (ATCC® CRL-1420™) and A549 (ATCC® CCL-185™) cells were cultured in RPMI 1640 Medium (ThermoFisher Scientific 11875093) containing 10% fetal bovine serum (ThermoFisher Scientific 16000044) and 1× penicillin-streptomycin-glutamine (ThermoFisher Scientific 10378016). Sixteen hours prior to compound treatment, MIA PaCa-2 were seeded in 96-well cell culture plates at a density of 25,000 cells/well and incubated at 37° C., 5% CO2. A compound dose-response titration was diluted in growth media, added to appropriate wells of a cell culture plate, and then incubated at 37° C., 5% CO2 for 2 (see Table 10). Following compound treatment, cells were stimulated with 10 ng/mL EGF (Roche 11376454001) for 10 min, washed with ice-cold Dulbecco's phosphate-buffered saline, no Ca^2+ or Mg^2+ (ThermoFisher Scientific 14190144), and then lysed in RIPA buffer (50 mM Tris-HCl pH 7.5, 1% Igepal, 0.5% sodium deoxycholate, 150 mM NaCl, and 0.5% sodium dodecyl sulfate) containing protease inhibitors (Roche 4693132001) and phosphatase inhibitors (Roche 4906837001). Phosphorylation of ERK1/2 in compound-treated lysates was assayed using Phospho-ERK1/2 Whole Cell Lysate kits (Meso Scale Discovery K151DWD) according to the manufacturer's protocol. Assay plates were read on a Meso Scale Discovery Sector Imager 6000, and data were analyzed using a 4-parameter logistic model to calculate IC50 values.

Setting [3] is: Homo sapiens, MIA PaCa-2, 2 h compound treatment.

Chain of GDP-bound KRAS protein (aa 1-169), containing both G12C and C118A amino acid substitutions (P01116 1-169 isoform P01116-2 G12C/C118A): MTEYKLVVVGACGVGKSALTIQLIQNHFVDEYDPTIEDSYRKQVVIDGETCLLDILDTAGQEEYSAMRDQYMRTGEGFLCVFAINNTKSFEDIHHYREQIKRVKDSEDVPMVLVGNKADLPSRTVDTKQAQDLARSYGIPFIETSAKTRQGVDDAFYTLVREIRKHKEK

Turning to `CC(C)c1ncnc(C(C)C)c1-n1c(=O)c(C#N)c(N2CCN(C(=O)/C=C/CN3CCCCC3)CC2)c2cc(Cl)c(-c3ccccc3F)nc21` [Example 3.1], the “Coupled exchange IC50 (5 min; μM)” value in test [1] was 1.02 µM. In test [2] (setting [3]), the IC50 was found to be 4470 nM. For `C=CC(=O)N1CCN(c2c(C#N)c(=O)n(-c3c(C(C)C)ccnc3N(C)C)c3nc(-c4ccccc4F)c(Cl)cc23)CC1` (single isomer, unassigned) [Example 8.8, 4-(4-acryloylpiperazin-1-yl)-6-chloro-1-(2-(dimethylamino)-4-isopropylpyridin-3-yl)-7-(2-fluorophenyl)-2-oxo-1,2-dihydro-1,8-naphthyridine-3-carbonitrile], the “Coupled exchange IC50 (5 min; μM)” value in test [1] was 0.09 µM. The concentration for half-maximal inhibition (IC50) in test [2] (2 h compound treatment) was found to be 50 nM. In the case of `C=CC(=O)N1CCN(c2c(C#N)c(=O)n(-c3c(C)ccnc3C(C)C)c3nc(-c4ccccc4C(C)C)c(Cl)cc23)CC1` (single isomer, unassigned) [Example 11.3, 4-(4-acryloylpiperazin-1-yl)-6-chloro-1-(2-isopropyl-4-methylpyridin-3-yl)-7-(2-isopropylphenyl)-2-oxo-1,2-dihydro-1,8-naphthyridine-3-carbonitrile], in test [1], the “Coupled exchange IC50 (5 min; μM)” value was determined as 0.05 µM. The IC50 in test [2] (setting [3]) was found to be 90 nM. Turning to `C=CC(=O)N1CCN(c2c(C#N)c(=O)n(-c3c(C)ccnc3C(C)C)c3nc(-c4ccccc4F)c(Cl)cc23)CC1` [Example 6, 4-(4-Acryloylpiperazin-1-yl)-6-chloro-7-(2-fluorophenyl)-1-(2-isopropyl-4-methylpyridin-3-yl)-2-oxo-1,2-dihydro-1,8-naphthyridine-3-carbonitrile], in test [1], the “Coupled exchange IC50 (5 min; μM)” value was 0.17 µM. The half-inhibitory concentration (IC50) in test [2] (2 h compound treatment) is 170 nM. Consider `CC(C)c1ncnc(C(C)C)c1-n1c(=O)c(C#N)c(N2CCN(C(=O)/C=C/CN(C)C)CC2)c2cc(Cl)c(-c3ccccc3F)nc21` [Example 3, (E)-6-Chloro-1-(4,6-diisopropylpyrimidin-5-yl)-4-(4-(4-(dimethylamino)but-2-enoyl)piperazin-1-yl)-7-(2-fluorophenyl)-2-oxo-1,2-dihydro-1,8-naphthyridine-3-carbonitrile], for which the “Coupled exchange IC50 (5 min; μM)” value in test [1] was 0.4 µM. Further, in test [2] (setting [3]), the 50% inhibitory concentration (IC50) amounted to 720 nM.

As to `CC(C)c1ncnc(C(C)C)c1-n1c(=O)c(C#N)c(N2CCN(C(=O)/C=C/CN)CC2)c2cc(Cl)c(-c3ccccc3F)nc21` [Example 4.1, (E)-4-(4-(4-aminobut-2-enoyl)piperazin-1-yl)-6-chloro-1-(4,6-diisopropylpyrimidin-5-yl)-7-(2-fluorophenyl)-2-oxo-1,2-dihydro-1,8-naphthyridine-3-carbonitrile], the “Coupled exchange IC50 (5 min; μM)” value in test [1] amounted to 0.18 µM. Also, the IC50 in test [2] (setting [3]) stood at 160 nM. On to `C=CC(=O)N1CCN(c2c(C#N)c(=O)n(-c3c(C)ccnc3C(C)C)c3nc(-c4ccccc4C)c(Cl)cc23)CC1` (single isomer, unassigned) [Example 11.1, 4-(4-acryloylpiperazin-1-yl)-6-chloro-1-(2-isopropyl-4-methylpyridin-3-yl)-2-oxo-7-(o-tolyl)-1,2-dihydro-1,8-naphthyridine-3-carbonitrile], for which the “Coupled exchange IC50 (5 min; μM)” value in test [1] amounted to 0.15 µM. The IC50 in test [2] (setting [3]) stood at 120 nM.

Regarding `C=CC(=O)N1CCN(c2c(C#N)c(=O)n(-c3c(C)ccnc3C(C)C)c3nc(-c4ccccc4F)c(Cl)cc23)C[C@H]1C` [Example 6.2, (R)-4-(4-acryloyl-3-methylpiperazin-1-yl)-6-chloro-7-(2-fluorophenyl)-1-(2-isopropyl-4-methylpyridin-3-yl)-2-oxo-1,2-dihydro-1,8-naphthyridine-3-carbonitrile], in test [1], the “Coupled exchange IC50 (5 min; μM)” value amounted to 0.28 µM. Besides, in test [2] (setting [3]), the half-inhibitory concentration (IC50) amounted to 140 nM. The corresponding values for `C=CC(=O)N1CCN(c2c(C#N)c(=O)n(-c3c(C(C)C)ccnc3C(C)C)c3nc(-c4ccccc4C)c(Cl)cc23)CC1` (single isomer, unassigned) [Example 7, 4-(4-Acryloylpiperazin-1-yl)-6-chloro-1-(2,4-diisopropylpyridin-3-yl)-2-oxo-7-(o-tolyl)-1,2-dihydro-1,8-naphthyridine-3-carbonitrile] are 0.15 µM and 220 nM. As to `C=CC(=O)N1[C@H](C)CN(c2c(C#N)c(=O)n(-c3c(C)ccnc3C(C)C)c3nc(-c4ccccc4F)c(Cl)cc23)C[C@@H]1C` [Example 7.3, 4-((3R,5S)-4-acryloyl-3,5-dimethylpiperazin-1-yl)-6-chloro-7-(2-fluorophenyl)-1-(2-isopropyl-4-methylpyridin-3-yl)-2-oxo-1,2-dihydro-1,8-naphthyridine-3-carbonitrile], the “Coupled exchange IC50 (5 min; μM)” value in test [1] amounted to 0.18 µM. Also, the IC50 in test [2] (setting [3]) was 260 nM. In the case of `C=CC(=O)N1CCN(c2c(C#N)c(=O)n(-c3c(C(C)C)ccnc3C(C)C)c3nc(-c4ccccc4C)c(Cl)cc23)CC1` (single isomer, unassigned) [Example 7.1, 4-(4-acryloylpiperazin-1-yl)-6-chloro-1-(2,4-diisopropylpyridin-3-yl)-2-oxo-7-(o-tolyl)-1,2-dihydro-1,8-naphthyridine-3-carbonitrile], the IC50 in test [2] (2 h compound treatment) stood at 140 nM. Regarding `C=CC(=O)N1CCN(c2c(C#N)c(=O)n(-c3c(C(C)C)ccnc3C(C)C)c3nc(-c4ccccc4F)c(F)cc23)CC1` [Example 10.1, 4-(4-acryloylpiperazin-1-yl)-1-(2,4-diisopropylpyridin-3-yl)-6-fluoro-7-(2-fluorophenyl)-2-oxo-1,2-dihydro-1,8-naphthyridine-3-carbonitrile], the “Coupled exchange IC50 (5 min; μM)” value in test [1] stood at 0.65 µM. Still for that read-out and setting: for `C=CC(=O)N1CCN(c2c(C#N)c(=O)n(-c3c(C)ccnc3C(C)C)c3nc(-c4ccccc4C)c(Cl)cc23)CC1` (single isomer, unassigned) [Example 11, 4-(4-Acryloylpiperazin-1-yl)-6-chloro-1-(2-isopropyl-4-methylpyridin-3-yl)-2-oxo-7-(o-tolyl)-1,2-dihydro-1,8-naphthyridine-3-carbonitrile] the value was 0.71 µM; for `C=CC(=O)N1CCN(c2c(C#N)c(=O)n(-c3c(N(C)C)ccnc3C(C)C)c3nc(-c4ccccc4F)c(Cl)cc23)CC1` (single isomer, unassigned) [Example 8.3, 4-(4-acryloylpiperazin-1-yl)-6-chloro-1-(4-(dimethylamino)-2-isopropylpyridin-3-yl)-7-(2-fluorophenyl)-2-oxo-1,2-dihydro-1,8-naphthyridine-3-carbonitrile], 0.42 µM; for `C=CC(=O)N1CCN(c2c(C#N)c(=O)n(-c3c(C(C)C)ccnc3N(C)C)c3nc(-c4ccccc4F)c(Cl)cc23)CC1` (single isomer, unassigned) [Example 8.7, 4-(4-acryloylpiperazin-1-yl)-6-chloro-1-(2-(dimethylamino)-4-isopropylpyridin-3-yl)-7-(2-fluorophenyl)-2-oxo-1,2-dihydro-1,8-naphthyridine-3-carbonitrile], 1.55 µM. `C=CC(=O)N1CCN(c2c(C#N)c(=O)n(-c3c(C(C)C)ccnc3C(C)C)c3nc(-c4ccccc4C)c(F)cc23)CC1` [Example 10, 4-(4-Acryloylpiperazin-1-yl)-1-(2,4-diisopropylpyridin-3-yl)-6-fluoro-2-oxo-7-(o-tolyl)-1,2-dihydro-1,8-naphthyridine-3-carbonitrile]: in test [1], the “Coupled exchange IC50 (5 min; μM)” value was found to be 0.94 µM.
